Earlier results on 1 compound are cited in paper PMC8342870 (International Journal of Biological Macromolecules, 2021).

This data set deals with SARS-CoV-2 PLpro (Severe acute respiratory syndrome coronavirus 2, UniProt P0DTD1). The following applies: previous work ref 29.

On to `CN1C[C@H](C(=O)N[C@]2(C)O[C@@]3(O)[C@@H]4CCCN4C(=O)[C@H](Cc4ccccc4)N3C2=O)C=C2c3cccc4[nH]cc(c34)C[C@H]21` [ergotamine], for which the “reported rigid docking score” value was -9.2 kcal/mol.
